Source: PubChem BioAssay AID1259408 (Genetic Toxicology Data Bank (GENE-TOX), 2018)
Activity calls are given as the source filed them. The rule behind the calls is not given here.

System: GENE-TOX genotoxicity assays, various organisms and cells
Assay: GENE-TOX mutagenicity studies
Conditions: for call: Assay Type: In vivo carcinogenicity studies
[1] = Species/Cell Type: Nonhuman, Assay Code: CCG+, Evaluation Type: Evaluation A (Pre-1980)
[2] = Species/Cell Type: Salmonella typhimurium (one or more of the five standard strains: TA98, TA100, TA1535, TA1537, and TA1538), Assay Type: Histidine reverse gene mutation, Ames assay, Assay Code: SAL+, Evaluation Type: Evaluation A (Pre-1980)
[3] = Species/Cell Type: Salmonella typhimurium, Assay Type: Forward and reverse gene mutation, host-mediated assay, Assay Code: HMA+, Evaluation Type: Evaluation A (Pre-1980)
[4] = Species/Cell Type: Bacillus subtilis (H17 vs M45), Assay Type: Rec-assay, spot test, DNA effects (bacterial DNA repair), Assay Code: REW+, Evaluation Type: Evaluation A (Pre-1980)
[5] = Species/Cell Type: Bacillus subtilis (H17 vs M45T), Assay Type: Rec-assay, spot test, DNA effects (bacterial DNA repair), Assay Code: REX-, Evaluation Type: Evaluation A (Pre-1980)
[6] = Species/Cell Type: Escherichia coli WP2, Assay Type: Tryptophan reverse gene mutation, Assay Code: WP2-, Evaluation Type: Evaluation A (Pre-1980)
[7] = Species/Cell Type: Drosophila melanogaster, Assay Type: Sex-linked recessive lethal gene mutation, Assay Code: SRL-, Evaluation Type: Evaluation A (Pre-1980)
[8] = Species/Cell Type: Escherichia coli polA (W3119 vs P3478), Assay Type: Rec-assay, DNA effects (bacterial DNA repair), Assay Code: RE1T, Evaluation Type: Evaluation A (Pre-1980)
[9] = Species/Cell Type: Mammalian polychromatic erythrocytes, Assay Type: Micronucleus test, chromosome aberrations, Assay Code: MNTT, Evaluation Type: Evaluation A (Pre-1980)
[10] = Species/Cell Type: Saccharomyces cerevisiae, Assay Type: Mitotic recombination or gene conversion, Assay Code: YEH+, Evaluation Type: Evaluation A (Pre-1980)
[11] = Species/Cell Type: Salmonella typhimurium (one or more of the five standard strains: TA98, TA100, TA1535, TA1537, and TA1538), Assay Type: Histidine reverse gene mutation, Ames assay, Assay Code: SAL-, Evaluation Type: Evaluation A (Pre-1980)
[12] = Species/Cell Type: Human lymphocytes, Assay Type: Sister-chromatid exchange (SCE) in vitro, Assay Code: SCL+, Evaluation Type: Evaluation B (Post-1980)
[13] = Species/Cell Type: Human, Assay Type: Sister-chromatid exchange (SCE) in vitro, Assay Code: SC1+, Evaluation Type: Evaluation B (Post-1980)

S=P(N1CC1)(N1CC1)N1CC1
mutagenic call (Species/Cell Type: Drosophila melanogaster, Assay Type: Sex-linked recessive lethal gene mutation, Assay Code: SRL+, Evaluation Type: Evaluation A (Pre-1980)): active; positive | mutagenic call (Species/Cell Type: Human lymphocytes or leukocytes, Assay Type: Chromosome aberrations in vitro, Assay Code: CY7+, Evaluation Type: Evaluation A (Pre-1980)): active; positive | mutagenic call (Species/Cell Type: Human lymphocytes, Assay Type: Sister-chromatid exchange (SCE) in vitro, Assay Code: SCL+D, Dose Response: With dose response, Evaluation Type: Evaluation B (Post-1980)): active; positive | mutagenic call (Species/Cell Type: Human, Assay Type: Sister-chromatid exchange (SCE) in vitro, Assay Code: SC1+D, Dose Response: With dose response, Evaluation Type: Evaluation B (Post-1980)): active; positive | mutagenic call (Species/Cell Type: Mammalian polychromatic erythrocytes, Assay Type: Micronucleus test, chromosome aberrations, Assay Code: MNT+, Evaluation Type: Evaluation A (Pre-1980)): active; positive | mutagenic call (Species/Cell Type: Mouse (C3H/10T1/2) cells, Assay Type: Cell transformation, Assay Code: CTH+, Evaluation Type: Evaluation A (Pre-1980)): active; positive | mutagenic call (Species/Cell Type: Mouse, Sex: Male, Assay Type: Heritable translocation test, chromosome aberrations, Assay Code: HTT+, Evaluation Type: Evaluation A (Pre-1980)): active; positive | mutagenic call (Species/Cell Type: Mouse, Sex: Male, Assay Type: Sperm morphology, Assay Code: SPI+, Evaluation Type: Evaluation A (Pre-1980)): active; positive | mutagenic call (Species/Cell Type: Nonhuman bone marrow, Assay Type: Chromosome aberrations, in vivo, Assay Code: CY#+D, Dose Response: With dose response, Evaluation Type: Evaluation A (Pre-1980)): active; positive | mutagenic call (Species/Cell Type: Nonhuman, Assay Type: Chromosome aberrations in vitro, Assay Code: CY&+, Evaluation Type: Evaluation A (Pre-1980)): active; positive | call [1]: active; positive | mutagenic call (Species/Cell Type: Nonhuman, Assay Type: Sister-chromatid exchange (SCE) in vitro, Assay Code: SC2+D, Dose Response: With dose response, Evaluation Type: Evaluation A (Pre-1980)): active; positive | mutagenic call (Species/Cell Type: Rodents, Sex: Male, Assay Type: Dominant lethal test, Assay Code: DLT+D, Dose Response: With dose response, Evaluation Type: Evaluation A (Pre-1980)): active; positive | mutagenic call (Species/Cell Type: Saccharomyces cerevisiae, Assay Type: Mitotic recombination or gene conversion, Assay Code: YEC+, Evaluation Type: Evaluation A (Pre-1980)): active; positive | mutagenic call [2]: active; positive | mutagenic call [3]: active; positive | mutagenic call (Species/Cell Type: Vicia faba, Assay Type: Chromosome aberrations, Assay Code: VIC+D, Dose Response: With dose response, Evaluation Type: Evaluation A (Pre-1980)): active; positive

CC(=O)CCCCn1c(=O)c2c(ncn2C)n(C)c1=O
mutagenic call (Species/Cell Type: Human, Sex: Male, Assay Type: Sperm morphology, Assay Code: SPHT, Evaluation Type: Evaluation A (Pre-1980)): no conclusion

O=C(O)c1ccccc1N=Nc1c(O)c(S(=O)(=O)O)cc2cc(S(=O)(=O)O)ccc12
mutagenic call (Species/Cell Type: Salmonella typhimurium (one or more of the five standard strains: TA98, TA100, TA1535, TA1537, and TA1538), Assay Type: Histidine reverse gene mutation, Ames assay, Assay Code: SALT, Evaluation Type: Evaluation A (Pre-1980)): no conclusion

[O]=[V]
mutagenic call [4]: active; positive

CNC(=O)Oc1ccc(C)c(C)c1
mutagenic call [5]: inactive; negative | mutagenic call [6]: inactive; negative

COP(=O)(OC)C(O)C(Cl)(Cl)Cl (centres undefined)
mutagenic call (Species/Cell Type: Bacillus subtilis (H17 vs M45), Assay Type: Rec-assay, spot test, DNA effects (bacterial DNA repair), Assay Code: REWT, Evaluation Type: Evaluation A (Pre-1980)): no conclusion | mutagenic call [7]: inactive; negative | mutagenic call (Species/Cell Type: Escherichia coli WP2 UVRA, Assay Type: Tryptophan reverse gene mutation, Assay Code: WPU+D, Dose Response: With dose response, Evaluation Type: Evaluation A (Pre-1980)): active; positive | mutagenic call [8]: no conclusion | mutagenic call (Species/Cell Type: Human diploid fibroblasts, Assay Type: Unscheduled DNA synthesis (UDS) in vitro, DNA effects, Assay Code: UDH+/-*, Activation: With metabolic activation, Evaluation Type: Evaluation A (Pre-1980)): inactive; positive without activation, negative with activation | mutagenic call [9]: no conclusion | mutagenic call (Species/Cell Type: Nonhuman, Assay Type: Sister-chromatid exchange (SCE) in vitro, Assay Code: SC2+D*, Activation: With metabolic activation, Dose Response: With dose response, Evaluation Type: Evaluation B (Post-1980)): active; positive | mutagenic call [10]: active; positive | mutagenic call [2]: active; positive | mutagenic call (Species/Cell Type: Salmonella typhimurium, Assay Type: Forward and reverse gene mutation, body fluid assay, Assay Code: BFU+, Evaluation Type: Evaluation A (Pre-1980)): active; positive

CCCCOCCOCCOCc1cc2c(cc1CCC)OCO2
call (Species/Cell Type: Nonhuman, Assay Code: CCG-L, Evaluation Type: Evaluation A (Pre-1980)): inactive; negative

CC(=O)NCc1nc(-c2ccc([N+](=O)[O-])o2)no1
mutagenic call [2]: active; positive

CN(N=O)C(=O)c1ccc(C(=O)N(C)N=O)cc1
mutagenic call (Species/Cell Type: Arabidopsis species, Assay Type: Gene mutation, Assay Code: ARM-, Evaluation Type: Evaluation A (Pre-1980)): inactive; negative | mutagenic call [10]: active; positive | mutagenic call (Species/Cell Type: Saccharomyces cerevisiae, Assay Type: Reverse gene mutation, Assay Code: YER-, Evaluation Type: Evaluation A (Pre-1980)): inactive; negative

CCC(C)c1ccccc1OC(=O)NC (centres undefined)
mutagenic call [5]: inactive; negative | mutagenic call [6]: inactive; negative

c1ccc2c(c1)cc1ccc3cccc4c5ccccc5c2c1c34
call [1]: active; positive

CC1CC2OC(/C=C/C=C/C=C/C=C/C=C/C(O)=C3\C(=O)C(C(C)C)N(C)C3=O)C(O)C2O1 (centres undefined)
mutagenic call (Species/Cell Type: Bacillus subtilis (H17 vs M45), Assay Type: Rec-assay, spot test, DNA effects (bacterial DNA repair), Assay Code: REW-, Evaluation Type: Evaluation A (Pre-1980)): inactive; negative

c1ccc(Nc2ccccc2)cc1
mutagenic call (Species/Cell Type: Syrian hamster embryo (SA7/SHE) cells, Assay Type: Cell transformation, viral enhanced, Assay Code: CT7+, Evaluation Type: Evaluation A (Pre-1980)): active; positive

O=C(O)c1c(Br)c(Br)c(Br)c(Br)c1C(=O)O
mutagenic call [11]: inactive; negative

C1O[C@@H]1[C@H]1CO1
mutagenic call (Species/Cell Type: Allium cepa, Assay Type: Chromosome aberrations, Assay Code: ALC+D, Dose Response: With dose response, Evaluation Type: Evaluation A (Pre-1980)): active; positive | mutagenic call (Species/Cell Type: Arabidopsis species, Assay Type: Gene mutation, Assay Code: ARM+, Evaluation Type: Evaluation A (Pre-1980)): active; positive | mutagenic call (Species/Cell Type: Schizosaccharomyces pombe, Assay Type: Reverse gene mutation, Assay Code: YEZ+, Evaluation Type: Evaluation A (Pre-1980)): active; positive | mutagenic call (Species/Cell Type: Zea mays (corn), Assay Type: Gene mutation, Assay Code: ZEM+, Evaluation Type: Evaluation A (Pre-1980)): active; positive

Cn1c(=O)c2c([nH]c(=O)n2C)n(C)c1=O
mutagenic call (Species/Cell Type: Allium cepa, Assay Type: Chromosome aberrations, Assay Code: ALC-, Evaluation Type: Evaluation A (Pre-1980)): inactive; negative

CCCCC=O
mutagenic call [12]: active; positive | mutagenic call [13]: active; positive

CCCCNCCCC
mutagenic call (Species/Cell Type: Nonhuman, Assay Type: Chromosome aberrations in vitro, Assay Code: CY&+D, Dose Response: With dose response, Evaluation Type: Evaluation A (Pre-1980)): active; positive | mutagenic call (Species/Cell Type: Nonhuman, Assay Type: Sister-chromatid exchange (SCE) in vitro, Assay Code: SC2+, Evaluation Type: Evaluation A (Pre-1980)): active; positive

S=C1SSC2=NCCN12
mutagenic call [4]: active; positive | mutagenic call [12]: active; positive | mutagenic call [13]: active; positive

NC1(C(=O)O)CCCC1
mutagenic call [8]: no conclusion

C=CCc1ccc2c(c1)OCO2
mutagenic call [7]: inactive; negative | mutagenic call (Species/Cell Type: Escherichia coli polA (W3110 vs P3478), Assay Type: Rec-assay, DNA effects (bacterial DNA repair), Assay Code: RE2+, Evaluation Type: Evaluation A (Pre-1980)): active; positive | mutagenic call (Species/Cell Type: Escherichia coli polA (W3119 vs P3478), Assay Type: Rec-assay, DNA effects (bacterial DNA repair), Assay Code: RE1+, Evaluation Type: Evaluation A (Pre-1980)): active; positive | mutagenic call (Species/Cell Type: Human diploid fibroblasts, Assay Type: Unscheduled DNA synthesis (UDS) in vitro, DNA effects, Assay Code: UDH-*, Activation: With metabolic activation, Evaluation Type: Evaluation A (Pre-1980)): inactive; negative | mutagenic call [9]: no conclusion | mutagenic call (Species/Cell Type: Mouse, Sex: Male, Assay Type: Sperm morphology, Assay Code: SPIT, Evaluation Type: Evaluation A (Pre-1980)): no conclusion | call [1]: active; positive | mutagenic call (Species/Cell Type: Nonhuman, Assay Type: Sister-chromatid exchange (SCE) in vitro, Assay Code: SC2+, Evaluation Type: Evaluation B (Post-1980)): active; positive | mutagenic call [10]: active; positive | mutagenic call [11]: inactive; negative | mutagenic call [3]: active; positive | mutagenic call (Species/Cell Type: Syrian hamster embryo (SHE) cells, Assay Type: Cell transformation, clonal assay, Assay Code: CTC+, Evaluation Type: Evaluation A (Pre-1980)): active; positive | mutagenic call (Species/Cell Type: Tradescantia species, Assay Type: Gene mutation, Assay Code: TRM+D, Dose Response: With dose response, Evaluation Type: Evaluation A (Pre-1980)): active; positive
